Laboratory results from patent US9149038B2, “4-amino-6-(heterocyclic)picolinates and 6-amino-2-(heterocyclic)pyrimidine-4-carboxylates and their use as herbicides” (Dow AgroSciences LLC, priority 2013, dated 2015).
Where two headings read alike, the source gives them in different places.

What was measured:
[1] = tested on: Key Broadleaf Weed and Crop Species; test: Post-Emergent Test II: postemergent herbicidal activity, visual rating after 14 d (Table 7); assay type: in vivo; details: post-emergence, 336 h; for pest or weed control at 35 g/ha: 35 g ai/ha; for pest or weed control at 70 g/ha: 70 g ai/ha; for pest or weed control at 140 g/ha: 140 g ai/ha
Procedure, shortened: (§1)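 Greenhouse-grown plants at the first or second true leaf stage (7-21 d, ~15 h photoperiod, 23-29° C day) were sprayed with compound in acetone/DMSO-based aqueous spray containing crop oil concentrate and Triton X-155 at 187 L/ha. Injury versus untreated plants was rated visually after 14 d on a 0-100 scale.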

[2] = tested on: Key Grass and Sedge Weeds as well as Grass Crops; test: Post-Emergent Test II: postemergent herbicidal activity, visual rating after 14 d (Table 8); assay type: in vivo; details: post-emergence, 336 h; for pest or weed control at 35 g/ha: 35 g ai/ha; for pest or weed control at 70 g/ha: 70 g ai/ha; for pest or weed control at 140 g/ha: 140 g ai/ha
Procedure, shortened: as §1

[3] = lambsquarters (Chenopodium album), read-out: Visual Growth Reduction (%) 14 Days After Application CHEAL
[4] = oilseed rape, canola (Brassica napus), read-out: Visual Growth Reduction (%) 14 Days After Application BRSNN
[5] = redroot pigweed (Amaranthus retroflexus), read-out: Visual Growth Reduction (%) 14 Days After Application AMARE
[6] = sunflower (Helianthus annuus), read-out: Visual Growth Reduction (%) 14 Days After Application HELAN
[7] = velvetleaf (Abutilon theophrasti), read-out: Visual Growth Reduction (%) 14 Days After Application ABUTH
[8] = wild poinsettia (Euphorbia heterophylla), read-out: Visual Growth Reduction (%) 14 Days After Application EPHHL
[9] = barnyardgrass (Echinochloa crus-galli), read-out: Visual Growth Reduction (%) 14 Days After Application ECHCG
[10] = giant foxtail (Setaria faberi), read-out: Visual Growth Reduction (%) 14 Days After Application SETFA
[11] = maize, corn (Zea mays), read-out: Visual Growth Reduction (%) 14 Days After Application ZEAMX
[12] = rice (Oryza sativa), read-out: Visual Growth Reduction (%) 14 Days After Application ORYSA
[13] = wheat, spring (Triticum aestivum), read-out: Visual Growth Reduction (%) 14 Days After Application TRZAS
[14] = yellow nutsedge (Cyperus esculentus), read-out: Visual Growth Reduction (%) 14 Days After Application CYPES

SMILES | pest or weed control at 35 g/ha [1, 3] [%] | pest or weed control at 70 g/ha [1, 3] [%] | pest or weed control at 140 g/ha [1, 3] [%] | pest or weed control at 35 g/ha [1, 4] [%] | pest or weed control at 70 g/ha [1, 4] [%] | pest or weed control at 140 g/ha [1, 4] [%] | pest or weed control at 35 g/ha [1, 5] [%] | pest or weed control at 70 g/ha [1, 5] [%] | pest or weed control at 140 g/ha [1, 5] [%] | pest or weed control at 35 g/ha [1, 6] [%] | pest or weed control at 70 g/ha [1, 6] [%] | pest or weed control at 140 g/ha [1, 6] [%] | pest or weed control at 35 g/ha [1, 7] [%] | pest or weed control at 70 g/ha [1, 7] [%] | pest or weed control at 140 g/ha [1, 7] [%] | pest or weed control at 35 g/ha [1, 8] [%] | pest or weed control at 70 g/ha [1, 8] [%] | pest or weed control at 140 g/ha [1, 8] [%] | pest or weed control at 35 g/ha [2, 9] [%] | pest or weed control at 70 g/ha [2, 9] [%] | other results
C=Cc1c(C(=O)O)nc(-c2ccc3c(c2)OC(F)(F)O3)c(F)c1N [Compound 30] | 0 to 29 | 0 to 29 | 0 to 29 | 45 to 59 | 60 to 74 | 75 to 84 | 0 to 29 | 0 to 29 | 0 to 29 | 0 to 29 | 0 to 29 | 85 to 94 | 45 to 59 | 75 to 84 | 75 to 84 | 60 to 74 | 75 to 84 | 85 to 94 | 75 to 84 | 75 to 84 | pest or weed control at 140 g/ha [2, 9]: 75 to 84%; pest or weed control at 35 g/ha [2, 10]: 0 to 29%; pest or weed control at 70 g/ha [2, 10]: 0 to 29%; pest or weed control at 140 g/ha [2, 10]: 0 to 29%; pest or weed control at 35 g/ha [2, 11]: 45 to 59%; pest or weed control at 70 g/ha [2, 11]: 60 to 74%; pest or weed control at 140 g/ha [2, 11]: 75 to 84%; pest or weed control at 35 g/ha [2, 12]: 0 to 29%; pest or weed control at 70 g/ha [2, 12]: 0 to 29%; pest or weed control at 140 g/ha [2, 12]: 0 to 29%; pest or weed control at 35 g/ha [2, 13]: 0 to 29%; pest or weed control at 70 g/ha [2, 13]: 0 to 29%; pest or weed control at 140 g/ha [2, 13]: 0 to 29%; pest or weed control at 35 g/ha [2, 14]: 0 to 29%; pest or weed control at 70 g/ha [2, 14]: 95 to 100%; pest or weed control at 140 g/ha [2, 14]: 95 to 100%
COC(=O)c1nc(-c2cc3c(cc2F)OC(F)(F)O3)cc(N)c1Cl [Compound 32] | 95 to 100 | 95 to 100 | 95 to 100 | 60 to 74 | 60 to 74 | 75 to 84 | 0 to 29 | 45 to 59 | 75 to 84 | 75 to 84 | 75 to 84 | 75 to 84 | 85 to 94 | 85 to 94 | 85 to 94 | 0 to 29 | 60 to 74 | 60 to 74 | 60 to 74 | 75 to 84 | pest or weed control at 140 g/ha [2, 9]: 75 to 84%; pest or weed control at 35 g/ha [2, 11]: 60 to 74%; pest or weed control at 70 g/ha [2, 11]: 60 to 74%; pest or weed control at 140 g/ha [2, 11]: 75 to 84%; pest or weed control at 35 g/ha [2, 12]: 0 to 29%; pest or weed control at 70 g/ha [2, 12]: 0 to 29%; pest or weed control at 140 g/ha [2, 12]: 0 to 29%; pest or weed control at 35 g/ha [2, 13]: 45 to 59%; pest or weed control at 70 g/ha [2, 13]: 60 to 74%; pest or weed control at 140 g/ha [2, 13]: 60 to 74%; pest or weed control at 35 g/ha [2, 14]: 95 to 100%; pest or weed control at 70 g/ha [2, 14]: 95 to 100%; pest or weed control at 140 g/ha [2, 14]: 95 to 100%
C=Cc1c(C(=O)OC)nc(-c2cc3c(cc2F)OCO3)c(F)c1N [Compound 31] | 0 to 29 | 0 to 29 | 0 to 29 | 0 to 29 | 0 to 29 | 45 to 59 | 85 to 94 | 85 to 94 | 95 to 100 | 45 to 59 | 85 to 94 | 85 to 94 | 0 to 29 | 0 to 29 | 45 to 59 | 95 to 100 | 95 to 100 | 95 to 100 | 0 to 29 | 60 to 74 | pest or weed control at 140 g/ha [2, 9]: 75 to 84%; pest or weed control at 35 g/ha [2, 10]: 0 to 29%; pest or weed control at 70 g/ha [2, 10]: 0 to 29%; pest or weed control at 140 g/ha [2, 10]: 0 to 29%; pest or weed control at 35 g/ha [2, 11]: 0 to 29%; pest or weed control at 70 g/ha [2, 11]: 30 to 44%; pest or weed control at 140 g/ha [2, 11]: 45 to 59%; pest or weed control at 35 g/ha [2, 12]: 0 to 29%; pest or weed control at 70 g/ha [2, 12]: 0 to 29%; pest or weed control at 140 g/ha [2, 12]: 0 to 29%; pest or weed control at 35 g/ha [2, 13]: 0 to 29%; pest or weed control at 70 g/ha [2, 13]: 0 to 29%; pest or weed control at 140 g/ha [2, 13]: 0 to 29%; pest or weed control at 35 g/ha [2, 14]: 0 to 29%; pest or weed control at 70 g/ha [2, 14]: 0 to 29%; pest or weed control at 140 g/ha [2, 14]: 0 to 29%
COC(=O)c1nc(-c2cc3c(cc2F)OCO3)c(F)c(N)c1OC [Compound 26] | 0 to 29 | 0 to 29 | 0 to 29 | 45 to 59 | 60 to 74 | 75 to 84 | 0 to 29 | 0 to 29 | 85 to 94 | 85 to 94 | 95 to 100 | 95 to 100 | 0 to 29 | 0 to 29 | 0 to 29 | 95 to 100 | 95 to 100 | 95 to 100 | 45 to 59 | 60 to 74 | pest or weed control at 140 g/ha [2, 9]: 75 to 84%; pest or weed control at 35 g/ha [2, 10]: 0 to 29%; pest or weed control at 70 g/ha [2, 10]: 0 to 29%; pest or weed control at 140 g/ha [2, 10]: 0 to 29%; pest or weed control at 35 g/ha [2, 11]: 45 to 59%; pest or weed control at 70 g/ha [2, 11]: 45 to 59%; pest or weed control at 140 g/ha [2, 11]: 60 to 74%; pest or weed control at 35 g/ha [2, 12]: 0 to 29%; pest or weed control at 70 g/ha [2, 12]: 0 to 29%; pest or weed control at 140 g/ha [2, 12]: 0 to 29%; pest or weed control at 35 g/ha [2, 13]: 0 to 29%; pest or weed control at 70 g/ha [2, 13]: 0 to 29%; pest or weed control at 140 g/ha [2, 13]: 0 to 29%; pest or weed control at 35 g/ha [2, 14]: 0 to 29%; pest or weed control at 70 g/ha [2, 14]: 0 to 29%; pest or weed control at 140 g/ha [2, 14]: 0 to 29%
